Where a name gives a salt, the structure may show the parent alone. Read-outs that look alike come from different tables or passages of the source.
Assays:
T1R1/T1R3 receptor [1] = molecular target: T1, T1R1/T1R3 receptor (Felis catus, UniProt E3UMS2); assay: Example 8: agonist screening of transmembrane compounds on T1R1/T1R3 in HEK293 cells; format: cell-based, cat; details: transmembrane compound alone
Method: (§1) HEK293 cells that stably express T1R3 and inducibly express T1R1 were exposed to a transmembrane compound. Activation of the T1R1/T1R3 receptor was detected by a change in intracellular calcium levels using a calcium sensitive fluorescent dye and/or a luminescent reporter system. […] A FLIPR® Tetra or a FlexStation® 3 was used for data capture.
Each transmembrane compound was tested at concentrations of 0.01 mM, 0.1 mM, and 1 mM. […] To generate the dose response curves, the transmembrane compound was tested at concentrations of between 0.0001 mM and 1.0 mM in the presence of GMP and Ala.
Target sequence in this assay (E3UMS2 entry or part of it, one chain of several): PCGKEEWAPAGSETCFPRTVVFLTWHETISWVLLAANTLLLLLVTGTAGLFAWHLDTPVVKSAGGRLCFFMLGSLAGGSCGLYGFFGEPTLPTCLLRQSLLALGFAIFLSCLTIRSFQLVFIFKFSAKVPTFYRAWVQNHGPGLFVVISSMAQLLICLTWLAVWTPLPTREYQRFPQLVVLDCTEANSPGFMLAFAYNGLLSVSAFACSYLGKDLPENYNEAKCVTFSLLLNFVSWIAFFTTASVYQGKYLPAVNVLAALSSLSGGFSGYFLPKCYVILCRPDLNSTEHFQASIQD

T1R1/T1R3 receptor [2] = molecular target: T1, T1R1/T1R3 receptor; assay: Example 8: PAM screening of transmembrane compounds with GMP and Ala on T1R1/T1R3 in HEK293 cells; format: cell-based, cat; details: in the presence of GMP and Alanine
Description: as §1, with “to” for “to a”, “compound alone or in combination with Ala and GMP to activate the umami receptor.” for “compound.”
Target sequence in this assay (E3UMS2 entry or part of it, one chain of several): as above
Dose response curves were generated for each transmembrane compound at concentrations of 0 (buffer only), 0.01, 0.1 and 1 mM, wherein each of the three concentrations of transmembrane compound was tested in combination with 0.03 mM GMP+100 mM Ala (T1); 0.6 mM GMP+10 mM Ala (T2); 0.1 mM GMP+60 mM Ala (T3) and 0.3 mM GMP+60 mM Ala (T4). The T4 mixture was also tested in a 2-fold dilution series (the T4(×) Concentration). In these experiments, the first test concentration was 2× (2 times) the T4 concentration. The subsequent test concentrations were 2-fold dilutions from that (1×, 0.5×etc.). This dilution series was tested with or without the addition of the test compound at a constant 0.3 mM concentration.
Activation of the umami receptor was also determined in the presence of 1 mM GMP+100 mM Ala to generate a “maximum” umami receptor activation level.

T1R1/T1R3 receptor [3] = molecular target: T1, T1R1/T1R3 receptor; assay: Example 6: activation of T1R1/T1R3 by transmembrane compounds, conducted as in Example 5; format: cell-based
Description: HEK293 cells that stably express T1R3 and inducibly express T1R1 were exposed to transmembrane compounds alone or in combination with one or more amino acids and/or one or more nucleotides to activate the umami receptor. Activation of the T1R1/T1R3 receptor was detected by a change in intracellular calcium levels using a calcium sensitive fluorescent dye. Cells that express T1R3 but not T1R1 were used as a control. A FLIPR® Tetra or a FlexStation® 3 was used for data capture.
In each experiment, serial dilutions of up to 10 mM of the transmembrane compound were added to the T1R1/T1R3-expressing cells.

T1R1/T1R3 receptor [4] = molecular target: T1, T1R1/T1R3 receptor; assay: cell-based; details: for Max resp % of Ala, +IMP (0.2 mM): relative to alanine; for Thres (mM), +IMP (0.2 mM): threshold concentration in the presence of 0.2 mM IMP
How it was run: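 HEK293 cells stably expressing T1R3 with inducible T1R1 were given transmembrane compounds in serial dilutions up to 10 mM, alone or with amino acids and/or nucleotides. Receptor activation was read as an intracellular calcium change with a calcium-sensitive fluorescent dye; T1R3-only cells served as control.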

cat T1R1/T1R3 receptor [5] = molecular target: T2, cat T1R1/T1R3 receptor (Felis catus, UniProt A0ABI7Z2I4); assay: cell-based
T2 sequence (A0ABI7Z2I4 171-420): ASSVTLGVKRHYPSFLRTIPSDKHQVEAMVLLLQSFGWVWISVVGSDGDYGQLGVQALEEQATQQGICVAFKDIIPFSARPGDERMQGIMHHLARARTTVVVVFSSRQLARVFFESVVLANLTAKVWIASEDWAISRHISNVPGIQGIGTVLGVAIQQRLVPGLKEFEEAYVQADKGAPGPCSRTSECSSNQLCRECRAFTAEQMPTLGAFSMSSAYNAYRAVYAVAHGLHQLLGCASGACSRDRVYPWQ
T2 sequence (Q49KI5 25-865 E206Q/N523D/F654L partner): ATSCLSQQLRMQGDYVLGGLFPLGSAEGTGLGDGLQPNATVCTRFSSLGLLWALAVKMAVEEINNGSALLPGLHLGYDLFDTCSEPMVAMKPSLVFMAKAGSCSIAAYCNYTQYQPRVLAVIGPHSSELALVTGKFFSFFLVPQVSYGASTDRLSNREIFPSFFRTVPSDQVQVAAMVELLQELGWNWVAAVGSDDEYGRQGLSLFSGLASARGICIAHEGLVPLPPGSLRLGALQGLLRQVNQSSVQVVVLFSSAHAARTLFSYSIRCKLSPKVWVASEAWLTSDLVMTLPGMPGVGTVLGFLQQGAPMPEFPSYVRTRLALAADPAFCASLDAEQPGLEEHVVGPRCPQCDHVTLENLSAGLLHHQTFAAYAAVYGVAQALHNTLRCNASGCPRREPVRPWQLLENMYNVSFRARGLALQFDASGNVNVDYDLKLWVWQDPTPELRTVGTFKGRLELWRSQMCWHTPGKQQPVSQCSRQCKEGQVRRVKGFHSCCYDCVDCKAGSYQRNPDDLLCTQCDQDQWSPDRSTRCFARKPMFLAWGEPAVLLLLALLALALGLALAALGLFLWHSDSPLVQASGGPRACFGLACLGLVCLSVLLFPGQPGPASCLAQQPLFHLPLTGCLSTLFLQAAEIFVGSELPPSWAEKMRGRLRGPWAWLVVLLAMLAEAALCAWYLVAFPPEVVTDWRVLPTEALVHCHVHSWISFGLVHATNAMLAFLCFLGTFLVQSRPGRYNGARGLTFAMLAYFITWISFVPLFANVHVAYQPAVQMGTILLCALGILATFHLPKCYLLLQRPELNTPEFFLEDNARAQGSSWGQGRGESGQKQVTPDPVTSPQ
Method: […] Activation of the T1R1/T1R3 receptor was detected by a change in intracellular calcium levels using a calcium sensitive fluorescent dye. Cells that express T1R3 but not T1R1 were used as a control. A FLIPR® Tetra or a FlexStation® 3 was used for data capture.
In each experiment, serial dilutions of up to 0.1 mM, 1 mM or 10 mM of the nucleotide derivative were added to the T1R1/T1R3-expressing cells.

cat T1R1/T1R3 receptor [6] = molecular target: T2, cat T1R1/T1R3 receptor; assay: cell-based; remark: listed apart in the source
How it was run: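 HEK293 cells stably expressing T1R3 with inducible T1R1, treated with nucleotide derivatives alone or combined with amino acids and/or nucleotides. Activation read as intracellular calcium change by calcium-sensitive fluorescent dye and/or luminescent reporter. Cells expressing T1R3 without T1R1 served as control.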

[7] = with 20 mM alanine, read-out: EC50- with Ala

Q: Which “agonist profile assessment (agonist activity)” value (T1R1/T1R3 receptor [1]) does the source give for `COC(=O)[C@@H](Cc1ccccc1)NCc1ccccc1.Cl` [N-Benzyl-D-Phenylalanine methyl ester hydrochloride] here?
A: agonist

Q: And the “PAM profile assessment (PAM activity)” value (T1R1/T1R3 receptor [2])?
A: PAM activity

Q: How did the EC50 (T1R1/T1R3 receptor [3]; T1R1/T1R3 EC50 +20 mM L-alanine, +20 mM L-alanine) turn out when `COC(=O)[C@H](Cc1ccccc1)NCc1ccccc1` [N-benzyl-L-phenylalanine methyl ester HCl] was run?
A: 50 ± 1 µM

Q: What about the EC50 (T1R1/T1R3 receptor [3]; T1R1/T1R3 EC50 alone in buffer, alone in buffer) of the same molecule?
A: 30 ± 2 µM

Q: `COC(=O)[C@H](Cc1ccccc1)NCc1ccccc1.Cl` [N-benzyl-L-phenylalanine methyl ester hydrochloride] was tested. Which “Max resp % of IMP, +Alanine (20 mM)” value (T1R1/T1R3 receptor [4]) did it give?
A: 273.4%

Q: And the “Thres (mM), +Alanine (20 mM)” value (T1R1/T1R3 receptor [4])?
A: 0.01 mM

Q: What about the “Max resp ΔF/F, +IMP (0.2 mM)” value (T1R1/T1R3 receptor [4]; in the presence of 0.2 mM IMP) of the same molecule?
A: 2.2500 ΔF/F

Q: And the “Max resp % of Ala, +IMP (0.2 mM)” value (T1R1/T1R3 receptor [4]; in the presence of 0.2 mM IMP)?
A: 289.4%

Q: And the “Thres (mM), +IMP (0.2 mM)” value (T1R1/T1R3 receptor [4])?
A: 0.003 mM

Q: And the “agonist profile assessment (agonist activity)” value (T1R1/T1R3 receptor [1])?
A: agonist

Q: What about the “PAM profile assessment (PAM activity)” value (T1R1/T1R3 receptor [2]) of the same molecule?
A: PAM activity

Q: What does the source list for `Nc1ncnc2c1ncn2C1OC(COP(O)(O)=S)C(O)C1O` (stereo not shown) [adenosine 5′-O-thiomonophosphate, Adenosine 5′-O-thiomonophosphate]?
A: EC50 (cat T1R1/T1R3 receptor [5]; test compound alone (in buffer), read-out: EC50- alone): > 1000 µM; EC50 (cat T1R1/T1R3 receptor [5]; [7]): 60 µM

Q: How did the EC50 (cat T1R1/T1R3 receptor [5]; EC50- alone) turn out when `C[C@H](N)C(=O)O` [alanine] was run?
A: 13600 µM

Q: What about the EC50 (cat T1R1/T1R3 receptor [6]) of the same molecule?
A: 13600 ± 4300 µM

Q: What about the EC50 (T1R1/T1R3 receptor [4]; EC50 (effect with 0.2 mM IMP)) of the same molecule?
A: 12.3 ± 1.3 mM

Q: What about the EC50 (T1R1/T1R3 receptor [4]; EC50 (mM), +IMP (0.2 mM)) of the same molecule?
A: 12.3 mM

Q: And the “Max resp % of Ala, +IMP (0.2 mM)” value (T1R1/T1R3 receptor [4]; in the presence of 0.2 mM IMP)?
A: 100.0%

Q: And the “Thres (mM), +IMP (0.2 mM)” value (T1R1/T1R3 receptor [4])?
A: 3.0 mM

Q: With `O=c1nc[nH]c2c1ncn2C1O[C@H](COP(=O)(O)OP(=O)(O)OP(=O)(O)O)[C@@H](O)[C@H]1O` (stereo partly shown) [inosine triphosphate (ITP) trisodium salt] as the molecule, how does the EC50 (cat T1R1/T1R3 receptor [5]; [7]) read?
A: 80 ± 10 µM

Q: And the Activity (cat T1R1/T1R3 receptor [6])?
A: active

Q: And the EC50 (cat T1R1/T1R3 receptor [6])?
A: 80 µM

Q: What about the “Max resp. (ΔF/F)” value (cat T1R1/T1R3 receptor [6]) of the same molecule?
A: 0.3 ΔF/F

Q: What about the “Max. resp. % of IMP” value (cat T1R1/T1R3 receptor [6]) of the same molecule?
A: 25.1 % of IMP

Q: And the Threshold (cat T1R1/T1R3 receptor [6])?
A: 0.02 mM

Reference: patent US20180168208A1 (priority 2014, published 2018)
